Test results from US7718705B1, “Methods of using rapid-onset selective serotonin reuptake inhibitors for treating sexual dysfunction” (Eli Lilly and Company, priority 2000, dated 2010).
Read-outs that look alike come from different tables or passages of the source.

What was measured:
[1] = test system: men presenting with premature ejaculation (PE) as defined in the DSM IV; assay: Global Satisfaction Question in the crossover evaluation of prn dapoxetine; type: in vivo, human
From the text: The patient-perceived-benefit of prn dosing method with dapoxetine, or a pharmaceutically acceptable salt thereof, can be determined, for example, through administration of a global satisfaction question, such as:
“How would you complete the following statement?
The new bottle of medication that I received at my previous visit made my premature ejaculation problem:
Measures for “ejaculatory latency” and “number of thrusts prior to ejaculation” should be recorded as the average of the 4-6 events recorded in the event logs for that treatment period. Subjects who ejaculated prior to intromission should have a zero recorded for both “ejaculatory latency” and “number of thrusts prior to ejaculation.” “Measures for Subject and Partner satisfaction scores (global impression)” and “Subject and Partner ejaculatory (or sexual) quality-of-life questionnaire” for each treatment period should be based on the score collected at the visit immediately following each treatment period.
(§1) During a lead-in period (maximum of 4 weeks), patients were asked to record ejaculatory latency a minimum of 4 times. Latency is defined as the time span, as measured by the patient's partner via a stopwatch, from vaginal intromission to ejaculation. At the completion of the lead-in period, patients were randomized to treatment with either 20 mg or 40 mg dapoxetine or placebo. Study medication was to be ingested 1 to 3 hours prior to a planned intercourse event. The time study drug was taken and time of intercourse were recorded in an event log. Patients were instructed to attempt intercourse at least 4 times over the 4 week treatment period and were issued a sufficient supply of medication to complete 6 attempts at intercourse. The outcome of each attempt (success of intromission and EL) was recorded in the event log initialed by the patient and their partner. Patients returned to the study clinic for a follow-up visit after 4 to 6 attempts at intercourse were completed. At visits 4, 5, and 6 patients were asked to answer the Global Satisfaction Questions and to complete the PEQ.
The results of a final analysis of a randomized, double-blind, three way crossover evaluation of two prn doses of dapoxetine (20 mg and 40 mg) in the treatment of premature ejaculation are disclosed in the following tables. The final analyses of the data was conducted following completion of all 3 treatment periods.

[2] = test system: men presenting with premature ejaculation (PE) as defined in the DSM IV; assay: Ejaculatory latency (stopwatch, intromission to ejaculation) in randomized, double-blind, three way crossover evaluation of prn dapoxetine; type: in vivo, human; conditions: for Percentage of patients achieving increases of at least one minute in EL: placebo 14%; for Increase of mean ejaculatory latency from baseline: placebo group 24 seconds
Method: The results of an interim analysis of a randomized, double-blind, three way crossover evaluation of two prn doses of dapoxetine (20 mg and 40 mg) in the treatment of premature ejaculation (hereinafter referred to as “PE”) are disclosed in tables 8a and 8b. Each patient is assigned to receive 4 to 6 administrations of each of the 3 study doses, in a random order, over 3 periods of not more than 4 weeks each. The interim analysis of the data was conducted following completion of the first treatment period.
The study comprised 155 men, aged 19 to 60, presenting with PE as defined in the DSM IV. All patients were involved in a stable monogamous sexual relationship of at least 6 months duration and reported a history of intravaginal ejaculatory latency (hereinafter referred to as “EL”) of less than 2 minutes in greater than half of their intercourse experiences. History of significant cardiovascular disease or psychiatric disorder, uncontrolled hypertension, erectile dysfunction, and substance abuse were criteria for exclusion.
as §1
Of the 155 patients randomized, 145 completed the treatment period. 54 patients were randomized to the placebo group, while 56 and 45 received 20 mg or 40 mg dapoxetine respectively. Although patients were randomly assigned to treatment sequences in blocks of 6, the imbalance in the number of patients randomized to each group was due to the random distribution of the 40 mg assignment to later allocations within the blocks. The intent-to-treat population was comprised of 143 patients, each of whom had baseline and follow-up data for analysis. Analysis of EL was conducted on the 138 patients who had latency data at baseline and at least one post-medication event. The percentage of patients with data sufficient for inclusion in the analysis of EL was lower in the 40 mg group than in either of the other 2 groups. This difference may be attributable to the smaller size of the 40 mg group, such that each patient represents a greater percentage of the whole, rather than being a function of the dose administered. […]

[3] = Plasma concentration profile in volunteers (FIG. 1); type: in vivo, human; conditions: 20 volunteers, 40 mg dapoxetine at time zero of the 14th day of daily dosing
[4] = test system: patients (premature ejaculation); conditions: fluoxetine continuous then prn dosing; cited from earlier work
[5] = test system: patients (premature ejaculation); conditions: cited from earlier work
[6] = test system: patients suffering from premature ejaculation; conditions: 26 patients, cited from earlier work
[7] = test system: potent men with premature ejaculation; conditions: 37 men, 50 mg oral sertraline; cited from earlier work
[8] = patients with baseline less than one minute, 20 mg prn
[9] = patients with baseline less than one minute, 40 mg prn
[10] = patients with baseline less than two minutes, 20 mg prn
[11] = patients with baseline less than two minutes, 40 mg prn
[12] = patients with baseline ≧ one minute, 40 mg prn
[13] = patients with baseline ≧ two minutes, 40 mg prn
[14] = final analysis, all patients, 20 mg prn
[15] = final analysis, all patients, 40 mg prn

## CN(C)[C@@H](CCOc1cccc2ccccc12)c1ccccc1 [Dapoxetine, (S)-(+)-N,N-Dimethyl-1-phenyl-3-(1-naphthalenyloxy)-propanamine]
[1]; "Moderate" patients, 20 mg prn
  Global Satisfaction: Better/Much Better: 34.4%
  Global Satisfaction: ≧Slightly Better: 51.6%
[1]; "Moderate" patients, 40 mg prn
  Global Satisfaction: Better/Much Better: 50%
  Global Satisfaction: ≧Slightly Better: 66.7%
[1]; "Severe" patients, 20 mg prn
  Global Satisfaction: Better/Much Better: 17.2%
  Global Satisfaction: ≧Slightly Better: 48.5%
[1]; "Severe" patients, 40 mg prn
  Global Satisfaction: Better/Much Better: 25.5%
  Global Satisfaction: ≧Slightly Better: 54.1%
[1]; [8]
  Global Satisfaction: Better/Much Better: 13%
  Global Satisfaction: ≧Slightly Better: 38%
[1]; [9]
  Global Satisfaction: Better/Much Better: 24%
  Global Satisfaction: ≧Slightly Better: 46%
[1]; [10]
  Global Satisfaction: Better/Much Better: 23%
  Global Satisfaction: ≧Slightly Better: 50%
[1]; [11]
  Global Satisfaction: Better/Much Better: 29%
  Global Satisfaction: ≧Slightly Better: 50%
[1]; [12]
  Global Satisfaction: Better/Much Better: 36.4%
  Global Satisfaction: ≧Slightly Better: 65.0%
[1]; [13]
  Global Satisfaction: Better/Much Better: 39.1%
  Global Satisfaction: ≧Slightly Better: 65.2%
[2]; "Moderate" patients, baseline 1.68, 20 mg prn
  Ejaculatory Latency (LS Mean): 2.64 min
[2]; "Moderate" patients, baseline 1.68, 40 mg prn
  Ejaculatory Latency (LS Mean): 2.93 min
[2]; "Moderate" patients, 20 mg prn
  Change in Latency (LS Mean): 0.94 min
[2]; "Moderate" patients, 40 mg prn
  Change in Latency (LS Mean): 1.27 min
[2]; "Severe" patients, baseline 1.23, 20 mg prn
  Ejaculatory Latency (LS Mean): 2.60 min
[2]; "Severe" patients, baseline 1.23, 40 mg prn
  Ejaculatory Latency (LS Mean): 3.09 min
[2]; "Severe" patients, 20 mg prn
  Change in Latency (LS Mean): 1.42 min
[2]; "Severe" patients, 40 mg prn
  Change in Latency (LS Mean): 1.93 min
[2]; [14]
  Change in Latency (LS Mean): 1.43 min
  Ejaculatory Latency (LS Mean): 2.78 min
[2]; [15]
  Change in Latency (LS Mean): 1.86 min
  Ejaculatory Latency (LS Mean): 3.19 min
[2]; final analysis, patients with baseline less than one minute, 20 mg prn
  Ejaculatory Latency (LS Mean): 1.2 min
[2]; final analysis, patients with baseline less than one minute, 40 mg prn
  Ejaculatory Latency (LS Mean): 1.7 min
[2]; first dose administered, no lead-in period (Table 12)
  Treatment of premature ejaculation with the first dose (in words): can effectively and unexpectedly treat premature ejaculation with the first dose administered to a patient
[2]; interim analysis, follow-up, first treatment period, 20 mg prn, 50 patients
  Ejaculatory latency, Mean ± S.D.: 2.3 ± 2.26 min
[2]; interim analysis, follow-up, first treatment period, 40 mg prn, 37 patients
  Ejaculatory latency, Mean ± S.D.: 2.3 ± 2.19 min
[2]; interim analysis, follow-up, 20 mg prn
  Ejaculatory latency, Range: 0.1 to 11.4 min
[2]; interim analysis, follow-up, 20 mg prn, adjusted for baseline and sample size
  Ejaculatory Latency (LS Mean): 2.41 min
[2]; interim analysis, follow-up, 40 mg prn
  Ejaculatory latency, Range: 0.0 to 9.8 min
[2]; interim analysis, follow-up, 40 mg prn, adjusted for baseline and sample size
  Ejaculatory Latency (LS Mean): 2.52 min
[2]; interim analysis, follow-up, 20 & 40 mg combined
  Ejaculatory latency, Range: 0.0 to 11.4 min
[2]; interim analysis, follow-up, 20 & 40 mg combined, 87 patients
  Ejaculatory latency, Mean ± S.D.: 2.3 ± 2.22 min
[2]; interim analysis, 20 mg prn
  Percentage of patients achieving increases of at least one minute in EL: 22%
  Increase of mean ejaculatory latency from baseline: one
[2]; interim analysis, 40 mg prn
  Percentage of patients achieving increases of at least one minute in EL: 24%
  Increase of mean ejaculatory latency from baseline: one
[2]; [8]
  Change in Latency (LS Mean): 0.6 min
[2]; [9]
  Change in Latency (LS Mean): 1.3 min
[2]; [10]
  Change in Latency (LS Mean): 1.4 min
  Ejaculatory Latency (LS Mean): 2.4 min
[2]; [11]
  Change in Latency (LS Mean): 1.5 min
  Ejaculatory Latency (LS Mean): 2.5 min
[2]; patients with baseline ≧ one minute, baseline 1.90, 40 mg prn
  Ejaculatory Latency (LS Mean): 4.24 min
[2]; [12]
  Change in Latency (LS Mean): 2.40 min
[2]; patients with baseline ≧ two minutes, baseline 3.19, 40 mg prn
  Ejaculatory Latency (LS Mean): 6.59 min
[2]; [13]
  Change in Latency (LS Mean): 3.43 min
[2]; recorded after administration of a single dose, 20 mg
  Ejaculatory Latency (LS Mean): 2.37 ± 0.24 min
[2]; recorded after administration of a single dose, 40 mg
  Ejaculatory Latency (LS Mean): 1.98 ± 0.27 min
[3]
  Plasma concentration profile (in words): rapid-onset to reach peak plasma concentration followed by rapid metabolism (i.e. short half-life)

## CNCCC(Oc1ccc(C(F)(F)F)cc1)c1ccccc1 (stereo not drawn) [fluoxetine]
[4]
  Patients initially improved with continuous dosing that lost benefit after switching to prn dosing: 100%

## Fc1ccc([C@@H]2CCNC[C@H]2COc2ccc3c(c2)OCO3)cc1 [paroxetine]
[5]; 20 mg prn paroxetine
  Patients with improved ejaculatory latency: 42%
[5]; paroxetine continuous then prn dosing
  Patients initially improved with continuous dosing that lost benefit after switching to prn dosing: 37%
[6]; prn 20 mg paroxetine tablet 3-4 hours prior to intercourse
  Ejaculatory latency (in words): statistically significant increase in ejaculatory latency in the second through fourth weeks of paroxetine treatment but not in the first week
[6]; prn 20 mg paroxetine
  Frequency of intercourse (in words): significantly increased only after 3 weeks of prn paroxetine therapy

## CN[C@H]1CC[C@@H](c2ccc(Cl)c(Cl)c2)c2ccccc21 [sertraline]
[7]
  Conclusion on treatment of premature ejaculation (in words): appeared to be a useful and well tolerated oral treatment for premature ejaculation after 1 to 2 weeks
